For one assay, the system named is RS4;11 cells. Kind of assay: RS4;11 cell viability assay (CellTiter Glo). Conditions: 10% human serum, 48 hours. In kind it is cell-based. From the text:
The acute lymphoblastic leukemia (ALL) cell line RS4;11 was used as the primary human cell line to assess the cellular activity of Bcl-2 selective agents in vitro and their efficacy in vivo. Previous studies have shown by BH3 profiling, a mitochondrial assay that classifies blocks in the intrinsic apoptotic pathway, that RS4;11 cells were highly dependant on BCL-2 for survival and sensitive to the Bcl-2 family member inhibitor ABT-737 (Blood, 2008, Vol. 111, 2300-2309).
RS4;11 cells were cultured in RPMI-1640 supplemented with 2 mM L-glutamine, 10% FBS, 1 mM sodium pyruvate, 2 mM HEPES, 1% penicillin/streptomycin (Invitrogen), 4.5 g/L glucose and maintained at 37 C containing 5% CO2. To test for the cellular activity of compounds in vitro, cells were treated at 50,000 cells per well in 96-well microtiter plates in the presence of 10% human serum for 48 hours in a humidified chamber with 5% CO2. Cell cytotoxicity EC50 values were assessed using CellTiter Glo (Promega) according to the manufacturer's recommendations. The EC50 values were determined as a percentage of viable cells following treatment compared to the untreated control cells.

The next assay deals with GST-Bcl-2 (Homo sapiens, UniProt P10415). The assay is described as follows: TR-FRET Bcl-2 binding assay (F-Bak peptide probe). The settings on record: GST-Bcl-2 1 nM, F-Bak peptide probe 100 nM, Tb-anti-GST 1 nM; Wang's equation; '<' = below limit of detection. The protocol: Determination of the utility of compounds of this invention as binders to and inhibitors of anti-apoptotic Bcl-2 proteins was performed using the Time Resolved-Fluorescence Resonance Energy Transfer (TR-FRET) Assay. Tb-anti-GST antibody was purchased from Invitrogen (Catalog No. PV4216).
Representative compounds were serially diluted in dimethyl sulfoxide (DMSO) starting at 50 μM (2× starting concentration; 10% DMSO) and 10 μL were transferred into a 384-well plate. The samples are then mixed on a shaker for 1 minute and incubated for an additional 3 hours at room temperature. For each assay, the probe/antibody and protein/probe/antibody were included on each assay plate as negative and positive controls, respectively. Fluorescence was measured on the Envision (Perkin Elmer) using a 340/35 nm excitation filter and 520/525 (F-Bak peptide) and 495/510 nm (Tb-labeled […] antibody) emission filters. Dissociation constants (Ki) are shown in TABLE 2 below and were determined using Wang's equation (Wang Z.-X., An Exact Mathematical Expression For Describing Competitive Binding Of Two Different Ligands To A Protein Molecule. FEBS Lett. 1995, 360:111-4).
The samples were then mixed on a shaker for 1 minute and incubated for an additional 3 hours at room temperature. For each assay, the probe/antibody and protein/probe/antibody were included on each assay plate as negative and positive controls, respectively. Fluorescence was measured on the Envision (Perkin Elmer) using a 340/35 nm excitation filter and 520/525 (F-Bak peptide) and 495/510 nm (Tb-labeled anti-Histidine antibody) emission filters.
Inhibition constants (Ki) for compounds were determined using Wang's equation (Wang Zx. An Exact Mathematical Expression For Describing Competitive Binding Of Two Different Ligands To A Protein Molecule. FEBS Lett. 1995, 360:111-4).
The inhibition constant (Ki) is the dissociation constant of an enzyme-inhibitor complex or a protein/small molecule complex, wherein the small molecule is inhibiting binding of one protein to another protein or peptide. So a large Ki value indicates a low binding affinity and a small Ki value indicates a high binding affinity. […] The compounds are therefore expected to have utility in treatment of diseases during which anti-apoptotic Bcl-2 protein is expressed. Biological Data
For orientation: In TR-FRET formats the signal depends on donor and acceptor labels being close together.

The term EC50 denotes the concentration at which the effect is half-maximal. Low readings indicate greater potency, high ones weaker potency. By Ki is commonly meant a dissociation constant, usually derived from enzyme kinetics or from competition with a known ligand.

Sequence of GST-Bcl-2 (P10415 whole entry): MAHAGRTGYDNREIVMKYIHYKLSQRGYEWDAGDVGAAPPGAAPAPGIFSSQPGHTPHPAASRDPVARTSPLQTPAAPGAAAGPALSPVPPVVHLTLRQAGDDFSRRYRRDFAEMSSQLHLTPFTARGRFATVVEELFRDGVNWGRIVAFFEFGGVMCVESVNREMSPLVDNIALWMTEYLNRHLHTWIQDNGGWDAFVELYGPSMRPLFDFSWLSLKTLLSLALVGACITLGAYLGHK

As for `CC1(C)CCC(CN2CCN(c3ccc(C(=O)NS(=O)(=O)c4ccc(NC[C@H]5CC[C@]6(CCCO6)CC5)c([N+](=O)[O-])c4)c(Oc4cnc5[nH]ccc5c4)c3)CC2)=C(c2ccc(Cl)cc2)C1` [Example 4, 4-(4-{[2-(4-chlorophenyl)-4,4-dimethylcyclohex-1-en-1-yl]methyl}piperazin-1-yl)-N-[(3-nitro-4-{[(5S,8S)-1-oxaspiro[4.5]dec-8-ylmethyl]amino}phenyl)sulfonyl]-2-(1H-pyrrolo[2,3-b]pyridin-5-yloxy)benzamide], it took 57 nM to reach a half-maximal effect in the assay on RS4;11 cells (EC50). Moreover, at GST-Bcl-2, the Ki is under 0.1 nM.
The compound `CC1(C)CCC(CN2CCN(c3ccc(C(=O)NS(=O)(=O)c4ccc(N5CCOCC5)c([N+](=O)[O-])c4)c(Oc4cnc5[nH]ccc5c4)c3)CC2)=C(c2ccc(Cl)cc2)C1` [Example 8, 4-(4-{[2-(4-chlorophenyl)-4,4-dimethylcyclohex-1-en-1-yl]methyl}piperazin-1-yl)-N-{[4-(morpholin-4-yl)-3-nitrophenyl]sulfonyl}-2-(1H-pyrrolo[2,3-b]pyridin-5-yloxy)benzamide] gave a half-maximal effective concentration (EC50) in the assay on RS4;11 cells of over 1000 nM. Besides, at GST-Bcl-2, the affinity, expressed as Ki, was 0.7 nM.
For `CC1(C)CCC(CN2CCN(c3ccc(C(=O)NS(=O)(=O)c4ccc(NCC5(CO)COC5)c([N+](=O)[O-])c4)c(Oc4cnc5[nH]ccc5c4)c3)CC2)=C(c2ccc(Cl)cc2)C1` [Example 11, 4-(4-{[2-(4-chlorophenyl)-4,4-dimethylcyclohex-1-en-1-yl]methyl}piperazin-1-yl)-N-{[4-({[3-(hydroxymethyl)oxetan-3-yl]methyl}amino)-3-nitrophenyl]sulfonyl}-2-(1H-pyrrolo[2,3-b]pyridin-5-yloxy)benzamide] the same measures were 15 nM and under 0.1 nM.
In the same order, the values of `CC1(C)CCC(CN2CCN(c3ccc(C(=O)NS(=O)(=O)c4ccc(NCC5CC(F)(F)C5)c([N+](=O)[O-])c4)c(Oc4cnc5[nH]ccc5c4)c3)CC2)=C(c2ccc(Cl)cc2)C1` [Example 28, 4-(4-{[2-(4-chlorophenyl)-4,4-dimethylcyclohex-1-en-1-yl]methyl}piperazin-1-yl)-N-[(4-{[(3,3-difluorocyclobutyl)methyl]amino}-3-nitrophenyl)sulfonyl]-2-(1H-pyrrolo[2,3-b]pyridin-5-yloxy)benzamide] are 120 nM and under 0.1 nM.
In the same order, the values of `CC1(C)CCC(CN2CCN(c3ccc(C(=O)NS(=O)(=O)c4ccc(NCC5CCN(S(=O)(=O)C(F)(F)F)CC5)c([N+](=O)[O-])c4)c(Oc4cnc5[nH]ccc5c4)c3)CC2)=C(c2ccc(Cl)cc2)C1` [Example 29, 4-(4-{[2-(4-chlorophenyl)-4,4-dimethylcyclohex-1-en-1-yl]methyl}piperazin-1-yl)-N-({3-nitro-4-[({1-[(trifluoromethyl)sulfonyl]piperidin-4-yl}methyl)amino]phenyl}sulfonyl)-2-(1H-pyrrolo[2,3-b]pyridin-5-yloxy)benzamide] are 57 nM and under 0.1 nM.
In the assay with RS4;11 cells, `CC1(C)CCC(CN2CCN(c3ccc(C(=O)NS(=O)(=O)c4ccc(NCC5CCN(S(C)(=O)=O)CC5)c([N+](=O)[O-])c4)c(Oc4cnc5[nH]ccc5c4)c3)CC2)=C(c2ccc(Cl)cc2)C1` [Example 30, 4-(4-{[2-(4-chlorophenyl)-4,4-dimethylcyclohex-1-en-1-yl]methyl}piperazin-1-yl)-N-{[4-({[1-(methylsulfonyl)piperidin-4-yl]methyl}amino)-3-nitrophenyl]sulfonyl}-2-(1H-pyrrolo[2,3-b]pyridin-5-yloxy)benzamide] yielded an EC50 of 27 nM. The compound also showed a Ki at GST-Bcl-2 of under 0.1 nM.
For `CC1(C)CCC(CN2CCN(c3ccc(C(=O)NS(=O)(=O)c4ccc(NCC5CC[S+]([O-])CC5)c([N+](=O)[O-])c4)c(Oc4cnc5[nH]ccc5c4)c3)CC2)=C(c2ccc(Cl)cc2)C1` (centres unmarked) [Example 32, 4-(4-{[2-(4-chlorophenyl)-4,4-dimethylcyclohex-1-en-1-yl]methyl}piperazin-1-yl)-N-[(3-nitro-4-{[(1-oxidotetrahydro-2H-thiopyran-4-yl)methyl]amino}phenyl)sulfonyl]-2-(1H-pyrrolo[2,3-b]pyridin-5-yloxy)benzamide] the same measures were 43 nM and under 0.1 nM.
In the assay on RS4;11 cells, `CC1(C)CCC(CN2CCN(c3ccc(C(=O)NS(=O)(=O)c4ccc(NC[C@H]5CCOC(C)(C)C5)c([N+](=O)[O-])c4)c(Oc4cnc5[nH]ccc5c4)c3)CC2)=C(c2ccc(Cl)cc2)C1` [Example 33, 4-(4-{[2-(4-chlorophenyl)-4,4-dimethylcyclohex-1-en-1-yl]methyl}piperazin-1-yl)-N-{[4-({[(4S)-2,2-dimethyltetrahydro-2H-pyran-4-yl]methyl}amino)-3-nitrophenyl]sulfonyl}-2-(1H-pyrrolo[2,3-b]pyridin-5-yloxy)benzamide] had an EC50 of 44 nM. In addition, the inhibition constant Ki on GST-Bcl-2 was under 0.1 nM.
`CC1(C)CCC(CN2CCN(c3ccc(C(=O)NS(=O)(=O)c4ccc(NCC5(C)COC5)c([N+](=O)[O-])c4)c(Oc4cnc5[nH]ccc5c4)c3)CC2)=C(c2ccc(Cl)cc2)C1` [Example 38, 4-(4-{[2-(4-chlorophenyl)-4,4-dimethylcyclohex-1-en-1-yl]methyl}piperazin-1-yl)-N-[(4-{[(3-methyloxetan-3-yl)methyl]amino}-3-nitrophenyl)sulfonyl]-2-(1H-pyrrolo[2,3-b]pyridin-5-yloxy)benzamide] came in with a concentration giving a half-maximal response (EC50) in the assay with RS4;11 cells of 30 nM. In addition, the Ki on GST-Bcl-2 was under 0.1 nM.
In the same order, the values of `COC1(CNc2ccc(S(=O)(=O)NC(=O)c3ccc(N4CCN(CC5=C(c6ccc(Cl)cc6)CC(C)(C)CC5)CC4)cc3Oc3cnc4[nH]ccc4c3)cc2[N+](=O)[O-])COCCOC1` [Example 40, 4-(4-{[2-(4-chlorophenyl)-4,4-dimethylcyclohex-1-en-1-yl]methyl}piperazin-1-yl)-N-[(4-{[(6-methoxy-1,4-dioxepan-6-yl)methyl]amino}-3-nitrophenyl)sulfonyl]-2-(1H-pyrrolo[2,3-b]pyridin-5-yloxy)benzamide] are 76 nM and under 0.1 nM.
In the case of `CC1(C)CCC(CN2CCN(c3ccc(C(=O)NS(=O)(=O)c4ccc(NC[C@H]5C[C@H](C#N)C5)c([N+](=O)[O-])c4)c(Oc4cnc5[nH]ccc5c4)c3)CC2)=C(c2ccc(Cl)cc2)C1` [Example 41, 4-(4-{[2-(4-chlorophenyl)-4,4-dimethylcyclohex-1-en-1-yl]methyl}piperazin-1-yl)-N-[(4-{[(trans-3-cyanocyclobutyl)methyl]amino}-3-nitrophenyl)sulfonyl]-2-(1H-pyrrolo[2,3-b]pyridin-5-yloxy)benzamide], in the assay on RS4;11 cells, the 50% effective concentration (EC50) came to 47 nM. This compound also had a Ki at GST-Bcl-2 of under 0.1 nM.
For `CC1(C)CCC(CN2CCN(c3ccc(C(=O)NS(=O)(=O)c4ccc(NC[C@H]5C[C@@H](C#N)C5)c([N+](=O)[O-])c4)c(Oc4cnc5[nH]ccc5c4)c3)CC2)=C(c2ccc(Cl)cc2)C1` [Example 42, 4-(4-{[2-(4-chlorophenyl)-4,4-dimethylcyclohex-1-en-1-yl]methyl}piperazin-1-yl)-N-[(4-{[(cis-3-cyanocyclobutyl)methyl]amino}-3-nitrophenyl)sulfonyl]-2-(1H-pyrrolo[2,3-b]pyridin-5-yloxy)benzamide], the midpoint of the response with RS4;11 cells, the EC50, lay at 56 nM. Also, the Ki at GST-Bcl-2 is under 0.1 nM.
For `CC1(C)CCC(CN2CCN(c3ccc(C(=O)NS(=O)(=O)c4ccc(NCC5CCS(=O)(=O)CC5)c([N+](=O)[O-])c4)c(Oc4cnc5[nH]ccc5c4)c3)CC2)=C(c2ccc(Cl)cc2)C1` [Example 43, 4-(4-{[2-(4-chlorophenyl)-4,4-dimethylcyclohex-1-en-1-yl]methyl}piperazin-1-yl)-N-[(4-{[(1,1-dioxidotetrahydro-2H-thiopyran-4-yl)methyl]amino}-3-nitrophenyl)sulfonyl]-2-(1H-pyrrolo[2,3-b]pyridin-5-yloxy)benzamide] the same measures were 31 nM and under 0.1 nM.

These data come from patent publication US10081628B2, “Apoptosis-inducing agents for the treatment of cancer and immune and autoimmune diseases” (AbbVie Inc., priority 2013, dated 2018).
